Reference: publication PMC6627331, “Identification of Small Molecule Inhibitors of Staphylococcus aureus RnpA” (Antibiotics, 2019)
Values after ≈ are worked out from the molar mass of the structure shown.

tested on: S. aureus UAMS-1; assay: Minimum inhibitory concentration (MIC) testing; type: cell-based, Staphylococcus aureus; settings: Staphylococcus aureus, UAMS1, 16 h, S. aureus UAMS-1, 16 h in MHB; read-out: MIC
Description: Minimum inhibitory concentration (MIC) testing was performed using to Clinical & Laboratory Standards Institute (CLSI) guidelines. Accordingly, individual wells of a 96-well microtiter plate were inoculated with 10^4 colony forming units (CFU) of S. aureus UAMS-1 containing two-fold increasing concentrations (0 to 256 μg·mL^−1) of the indicated antibiotic or putative RnpA inhibitor compound, and incubated at 37 °C for 16 h in MHB. The MIC was defined as the lowest concentration of compound in which there was no visible bacterial growth in the well.

MIC [µg/mL] | SMILES
1 (≈ 3.16 µM) | CCCN1CCN(C(=O)Nc2cc(Cl)cc(Cl)c2)CC1 [JC8]
64 (≈ 199 µM) | Nc1sc2c(c1C(=O)Nc1ccc(Cl)cc1)CCCCC2 [JR1c]
> 256 | O=C(Nc1ccc(Cl)cc1)N1CCCCCC1 [JC5c]
> 256 | CC(=O)Nc1sc2c(c1C(=O)Nc1ccc(Cl)cc1)CCCCC2 [JR1b]
> 256 | CCC1CCCCN1C(=O)Nc1cccc(C)c1 (centres unmarked) [JC3f]
> 256 | CCC1CCCCN1C(=O)Nc1ccc(Br)cc1 (centres unmarked) [JC3e]
> 256 | O=C(Nc1ccccc1Cl)c1c(NC(=O)C(F)(F)F)sc2c1CCCC2 [JR2b]

same assay, conditions: Staphylococcus aureus, UAMS1, SAR figures; S. aureus UAMS-1; read-out: MIC

MIC [µg/mL] | SMILES
1 (≈ 3.16 µM) | CCCN1CCN(C(=O)Nc2cc(Cl)cc(Cl)c2)CC1 [JC8]
64 (≈ 199 µM) | Nc1sc2c(c1C(=O)Nc1ccc(Cl)cc1)CCCCC2 [JR1c]
> 256 | O=C(Nc1ccc(Cl)cc1)N1CCCCCC1 [JC5c]
> 256 | CC(=O)Nc1sc2c(c1C(=O)Nc1ccc(Cl)cc1)CCCCC2 [JR1b]
> 256 | CCC1CCCCN1C(=O)Nc1cccc(C)c1 (centres unmarked) [JC3f]
> 256 | CCC1CCCCN1C(=O)Nc1ccc(Br)cc1 (centres unmarked) [JC3e]
> 256 | O=C(Nc1ccccc1Cl)c1c(NC(=O)C(F)(F)F)sc2c1CCCC2 [JR2b]

target: T1, S. aureus RnpA (Staphylococcus aureus, UniProt P0A0H5); assay: RnpA-mediated in vitro spa mRNA degradation assay; type: biochemical; settings: SAR figures, read-out: dIC50 = degradation IC50
T1 construct: hexahistidine (His6) (N); made in house; host or cells: E. coli BL21 (DE3), plasmid pEXP5-nt
T1 sequence (P0A0H5 1-117): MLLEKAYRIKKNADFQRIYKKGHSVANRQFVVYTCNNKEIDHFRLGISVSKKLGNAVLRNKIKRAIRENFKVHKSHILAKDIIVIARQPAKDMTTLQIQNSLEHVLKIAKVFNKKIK
Description: RnpA-mediated RNA degradation assays were performed as previously described. Briefly, 1 pmol of spa mRNA was incubated with 5 pmol RnpA at 37 °C for 30 min in reaction buffer (50 mM Tris-HCl pH 8.0, 2 mM NaCl, 2 mM MgCl2) in the absence or presence of the indicated compound (≤500 µM). The inhibitory effects of the test compounds were calculated using Biorad ImageLab densitometry software to measure the signal intensity of the spa band in the negative control (spa alone), positive control (RnpA + spa + DMSO), and experimental samples (RnpA + spa + test compound) separated on a 1.2% formaldehyde-agarose gel. Background signal from the positive control sample sometimes resulted due to incomplete degradation of transcripts. Thus, the signal intensity of the positive control was taken into account when calculating the percent inhibition. The raw signals from the positive (+RnpA) and negative (-RnpA) controls were converted into percentage, by normalizing the positive control (+RnpA) signal to 0% RnpA inhibition and the negative control (-RnpA) to 100% RnpA inhibition. Similarly, the raw signals from the test compounds were reported as percent RnpA inhibition using the following equation: [(experimental−positive control)/(negative control−positive control)] × 100. […] To assess IC50, % RnpA degradation inhibition was plotted against compound concentration; a linear best fit equation was generated and utilized to calculate the IC50.

IC50 [µM] | SMILES
450 | CCCN1CCN(C(=O)Nc2cc(Cl)cc(Cl)c2)CC1 [JC8]
> 500 | O=C(Nc1ccc(Cl)cc1)N1CCCCCC1 [JC5c]
> 500 | CCC1CCCCN1C(=O)Nc1cccc(C)c1 (centres unmarked) [JC3f]
> 500 | CCC1CCCCN1C(=O)Nc1ccc(Br)cc1 (centres unmarked) [JC3e]
62 | O=C(Nc1ccccc1Cl)c1c(NC(=O)C(F)(F)F)sc2c1CCCC2 [JR2b]

same assay, conditions: read-out: Degradation IC50

IC50 [µM] | SMILES
≥ 450 | CCCN1CCN(C(=O)Nc2cc(Cl)cc(Cl)c2)CC1 [JC8]
175 | Nc1sc2c(c1C(=O)Nc1ccc(Cl)cc1)CCCCC2 [JR1c]
> 250 | CC(=O)Nc1sc2c(c1C(=O)Nc1ccc(Cl)cc1)CCCCC2 [JR1b]

tested on: HepG2 cells; assay: MTT human cell cytotoxicity testing; type: cell-based; settings: 4× MIC exposure for 24 h, MTT
Description: Human HepG2 hepatocytes were seeded in individual wells of a 96-well cell-culture treated microtiter plate at a concentration of 1 × 10^5 cells per well and incubated in Dulbecco’s Modified Eagle Medium (DMEM) supplemented with 10% fetal bovine serum at 37 °C with 5% carbon dioxide overnight. Cells were then treated with DMSO (negative control) or the indicated agent for 24 h. MTT Cell Proliferation Assay Kits were used to assess viability according to the manufacturer’s recommendations (American Type Culture Collection; Manassas, VA, USA).

SMILES | % HepG2 Cell Survival [%]
CCCN1CCN(C(=O)Nc2cc(Cl)cc(Cl)c2)CC1 [JC8] | 109.2

same assay, conditions: SAR figures; 4× MIC exposure for 24 h

SMILES | MTT = % HepG2 cell survival [%]
CCCN1CCN(C(=O)Nc2cc(Cl)cc(Cl)c2)CC1 [JC8] | 109
Nc1sc2c(c1C(=O)Nc1ccc(Cl)cc1)CCCCC2 [JR1c] | 54.5
CC(=O)Nc1sc2c(c1C(=O)Nc1ccc(Cl)cc1)CCCCC2 [JR1b] | 84.9
O=C(Nc1ccccc1Cl)c1c(NC(=O)C(F)(F)F)sc2c1CCCC2 [JR2b] | 59.5

target: T2, S. aureus RNase P (RnpA + rnpB) (Staphylococcus aureus, UniProt P0A0H5); assay: RnpA-dependent RNase P in vitro ptRNA^Tyr processing assay; type: biochemical; settings: SAR figures; in vitro ptRNA^Tyr processing; read-out: pIC50 = processing IC50 (converted)
T2 construct: hexahistidine (His6) (N); made in house; host or cells: E. coli BL21 (DE3), plasmid pEXP5-nt
T2 sequence (P0A0H5 1-117): T1 sequence (P0A0H5 1-117)
Description: S. aureus RNase P activity assays were performed according to conditions described previously. Briefly, ptRNA^Tyr and rnpB RNA species were first denatured by heating to 95 °C for 5 min then slow cooled to room temperature. RNase P was reconstituted by mixing an equal molar ratio of rnpB and RnpA for 15 min at 37 °C. Precursor tRNA processing inhibition reactions were performed by mixing 1.25 pmol of reconstituted RNase P (RnpA + rnpB) with an equal volume of 2× low salt buffer (50 mM Tris-HCl pH 8.0, 5 mM MgCl2) in the presence of DMSO (negative control) or the indicated compound (≤500 µM) and incubated for 5 min at 37 °C. 5 pmol ptRNA^Tyr was added and the mixture was incubated at 37 °C 15 min. Reactions were stopped by adding 2× RNA loading dye and heating at 65 °C for 10 min. Each sample was electrophoresed in a 7 M urea/8% polyacrylamide gel then stained with ethidium bromide. The Biorad EZ Gel Doc imaging system was used to visualize the RNA and relative abundance of the mature tRNA^Tyr band (% processing) in the negative control or in samples containing the indicated compounds and analyzed using Biorad Image Lab densitometry software. The inhibitory activity of the indicated compounds were calculated as a % inhibition using the following equation: […].
To assess IC50, % RNase P processing inhibition was plotted against compound concentration and a linear best fit equation was generated to calculate the IC50.

IC50 [µM] | SMILES
> 500 | CCCN1CCN(C(=O)Nc2cc(Cl)cc(Cl)c2)CC1 [JC8]
> 500 | O=C(Nc1ccc(Cl)cc1)N1CCCCCC1 [JC5c]
> 500 | CCC1CCCCN1C(=O)Nc1cccc(C)c1 (centres unmarked) [JC3f]
> 500 | CCC1CCCCN1C(=O)Nc1ccc(Br)cc1 (centres unmarked) [JC3e]

same assay, conditions: in vitro ptRNA^Tyr processing; read-out: Processing IC50

IC50 [µM] | SMILES
≥ 450 | CCCN1CCN(C(=O)Nc2cc(Cl)cc(Cl)c2)CC1 [JC8]
25 | Nc1sc2c(c1C(=O)Nc1ccc(Cl)cc1)CCCCC2 [JR1c]
115 | CC(=O)Nc1sc2c(c1C(=O)Nc1ccc(Cl)cc1)CCCCC2 [JR1b]
100 | O=C(Nc1ccccc1Cl)c1c(NC(=O)C(F)(F)F)sc2c1CCCC2 [JR2b]
